Measurements published in patent US11096910B2, “Metabolically robust analogs of CYP-eicosanoids for the treatment of cardiac disease” (OMEICOS THERAPEUTICS GMBH, priority 2015, dated 2021).

Experiments:
[1] = test system: mouse neonatal primary cardiomyocyte culture; experiment: Oxygen-glucose deprivation/reoxygenation injury in primary cardiomyocytes; assay type: cell-based; conditions: for amelioration of loss of cell number: Hoechst 33342 staining; for reduction of apoptosis: caspase 3/7 activation
Description: In vitro ischemic injury was induced in mouse neonatal primary cardiomyocyte culture by oxygen-glucose deprivation for 18 hours and a 24 hours reoxygenation period in a humidified incubator with 5% CO2/95% air. Cardiomyocytes were incubated with the test compounds during 4 hours prior to the oxygen glucose depriviation (OGD) induction. The test compounds were also present during the OGD insult and during the 24 h-reoxygenation period. After the reoxygenation period, cell number was assessed by Hoechst 33342 staining, apoptosis was measured by determining caspase 3/7 activation, and cell membrane integrity or necrosis was measured as LDH release.
Data were expressed as mean±SD of three separate wells and individual comparisons were made with Student's t-test (SigmaPlot 9.0 program). The results were normalized to the normoxia-treated cells. Statistical significance (*) p<0.05 as compared to normoxia/DMSO-treated cells and (§) hypoxia/DMSO treated cells. Results

[2] = test system: spontaneously beating neonatal rat cardiomyocytes (NRCMs); experiment: Spontaneous beating rate of neonatal rat cardiomyocytes (anti-arrhythmic cell model); assay type: cell-based; conditions: 20 nM or 30 nM; comparison between analogs
Description: The compounds include analogues being part of the invention (Comp-01 to Comp-05), which were synthesized as described in example 1, and additional related compounds (Comp-06 to Comp-13). A 1000-fold stock solutions in ethanol of the test compounds was prepared before use.
In order to measure the biological activities of metabolically robust analogs of CYP-eicosanoids an established cell model was used (Kang, J. X. et al., Proc Natl Acad Sci USA, 1994. 91(21): p. 9886-90). The spontaneously beating neonatal rat cardiomyocytes (NRCMs) are a model system to investigate anti-arrhythmic effects of test-compounds. […]
Isolation and cultivation of NRCMs were performed as described previously (Wallukat, G et al., J Clin Invest. 1999; 103: 945-952; Falck, J R et al., J Med Chem. 2011 Jun. 23; 54(12):4109-18). […] After four hours of incubation cells were adopted for 10 min to 31° C. and beating was recorded using an inverted microscope (Leica DM IRB) equipped with a CCD camera and coupled to an IonOptix (software: IonWizard6, IonOptix). To determine the basal rate, 6 to 8 individual clusters were selected and the number of contractions was counted for 15 sec. After that, the compound to be tested was added to the culture and the beating rate of the same clusters was monitored 5 min later again. […]

| SMILES | reduction of cellular necrosis (LDH-release) ([1]; 30 nM) [%] | amelioration of loss of cell number ([1]; 30 nM) | reduction of apoptosis ([1]; 30 nM) | reduction of cellular necrosis (LDH-release) ([1]; 10 μM) [%] | amelioration of loss of cell number ([1]; 10 μM) | reduction of apoptosis ([1]; 10 μM) [%] | negative chronotropic effect on NRCMs, in words [2] |
| --- | --- | --- | --- | --- | --- | --- | --- |
| CCC1OC1C/C=C\C/C=C\C/C=C\C/C=C\CCCC(=O)O (stereo not shown) [17,18-EEQ, reference compound] | 41 | did not significantly affect cell number | not at the low concentration tested | 37 | did not significantly affect cell number | 43 | – |
| CNC(=O)C(=O)NCCCCc1ccccc1CCCCCCOCC(=O)O [Comp-05] | – | – | – | – | – | – | without major loss of activity |
